Assay results published in patent US20260325533A1, “CDK INHIBITOR COMPOUNDS” (ALEKSIA THERAPEUTICS, INC., priority 2023, published 2026).
Read-outs that look alike come from different tables or passages of the source.

Legend:
Assay type in all cases: biochemical
CDK1/CCNB1 = CDK1/CCNB1 (Homo sapiens, UniProt P06493); test: CDK1 homogeneous time-resolved fluorescence (HTRF) kinase assay; conditions: CDK1/CCNB
Outline: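 Compounds, titrated 11 points in half-log steps typically from 10 μM, were incubated with enzyme for 20 min before ATP (1 mM) and ULight-labelled eIF4E-binding protein 1 peptide (50 nM) started a 60-min reaction at 23 °C. Phosphopeptide was detected by europium-antibody TR-FRET and IC50 values were derived.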

CDK6/CCND1 = CDK6/CCND1 (Homo sapiens, UniProt Q00534); test: CDK6 homogeneous time-resolved fluorescence (HTRF) kinase assay; conditions: CDK6/CCND
Chain of CDK6/CCND1 (Q00534 whole entry): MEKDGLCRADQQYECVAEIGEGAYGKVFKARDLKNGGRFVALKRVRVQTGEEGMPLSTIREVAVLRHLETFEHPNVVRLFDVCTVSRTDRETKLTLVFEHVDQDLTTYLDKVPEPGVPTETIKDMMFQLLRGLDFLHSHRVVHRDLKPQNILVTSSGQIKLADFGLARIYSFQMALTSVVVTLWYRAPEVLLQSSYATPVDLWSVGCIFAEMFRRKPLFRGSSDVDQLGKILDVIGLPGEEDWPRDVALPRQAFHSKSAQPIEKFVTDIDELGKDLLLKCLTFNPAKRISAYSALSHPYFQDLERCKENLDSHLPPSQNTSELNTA
Chain of CDK6/CCND1 (P24385 whole entry partner): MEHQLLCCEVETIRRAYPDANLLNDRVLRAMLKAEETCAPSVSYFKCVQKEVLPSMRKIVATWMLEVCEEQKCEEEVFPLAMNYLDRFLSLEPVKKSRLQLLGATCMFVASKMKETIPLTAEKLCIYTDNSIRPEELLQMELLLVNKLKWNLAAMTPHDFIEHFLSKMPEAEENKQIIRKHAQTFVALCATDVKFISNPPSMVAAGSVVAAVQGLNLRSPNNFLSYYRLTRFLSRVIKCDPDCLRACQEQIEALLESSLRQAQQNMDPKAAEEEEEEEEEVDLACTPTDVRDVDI
Outline: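 Recombinant CDK6/CCND1 (1 nM final) was preincubated with compound for 20 min at 23 °C in HEPES buffer with MgCl2, EGTA, DTT and Tween 20. Kinase reaction then ran 60 min at 23 °C with 1 mM ATP and 50 nM ULight-4E-BP1 (Thr37/46) peptide, and was stopped with EDTA.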

CDK4/CCND3 = CDK4/CCND3 (Homo sapiens, UniProt P11802); test: CDK4 homogeneous time-resolved fluorescence (HTRF) kinase assay; conditions: CDK4/CCND
Chain of CDK4/CCND3 (P11802 whole entry): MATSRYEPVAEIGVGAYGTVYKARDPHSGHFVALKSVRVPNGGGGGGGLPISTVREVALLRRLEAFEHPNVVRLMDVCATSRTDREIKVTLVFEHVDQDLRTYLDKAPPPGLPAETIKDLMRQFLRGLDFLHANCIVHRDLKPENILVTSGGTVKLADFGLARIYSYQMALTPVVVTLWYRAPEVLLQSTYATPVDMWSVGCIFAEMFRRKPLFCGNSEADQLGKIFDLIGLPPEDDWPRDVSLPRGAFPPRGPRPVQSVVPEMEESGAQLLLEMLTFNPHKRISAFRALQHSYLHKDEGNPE
Chain of CDK4/CCND3 (P30281 whole entry partner): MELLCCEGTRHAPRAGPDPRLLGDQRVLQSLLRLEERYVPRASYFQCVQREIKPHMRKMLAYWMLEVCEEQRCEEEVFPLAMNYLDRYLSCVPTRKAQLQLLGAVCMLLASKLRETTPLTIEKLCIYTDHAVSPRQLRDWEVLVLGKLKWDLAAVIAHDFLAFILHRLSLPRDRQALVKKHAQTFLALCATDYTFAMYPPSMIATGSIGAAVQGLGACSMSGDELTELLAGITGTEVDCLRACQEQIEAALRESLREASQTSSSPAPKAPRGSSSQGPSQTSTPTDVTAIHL
Outline: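 HTRF kinase assay, CDK4/CCND3 1.5 nM, ATP 1 mM, ULight-4E-BP1 peptide 50 nM, 23 °C, 60 min reaction after 20 min preincubation. Eu-anti-pThr37/46 antibody detection. 11-pt half-log curves from 10 μM → IC50.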

CDK2/CCNE1 = CDK2/CCNE1 (Homo sapiens, UniProt P24941); test: CDK2 homogeneous time-resolved fluorescence (HTRF) kinase assay; conditions: CDK2/CCNE
Outline: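 TR-FRET read-out (665 nm, or 665/615 ratio) of Eu-antibody detection of phospho-4E-BP1 (Thr37/46) ULight peptide. Enzyme 3 nM, ATP 1 mM, peptide 50 nM, 1% DMSO; 60 min reaction at 23 °C after 20 min compound preincubation. IC50 from 11-point half-log titrations, top typically 10 μM.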

[1] = x = IC50 25-250 nM, read-out: CDK1/CCNB IC50 (25-250 nM)
[2] = x = IC50 25-250 nM, read-out: CDK6/CCND IC50 (25-250 nM)
[3] = x = IC50 25-250 nM, read-out: CDK4/CCND IC50 (25-250 nM)
[4] = x = IC50 <25 nM, read-out: CDK2/CCNE IC50 (<25 nM)
[5] = x = IC50 >250 nM, read-out: CDK1/CCNB IC50 (>250 nM column)
[6] = x = IC50 >250 nM, read-out: CDK6/CCND IC50 (>250 nM column)
[7] = x = IC50 >250 nM, read-out: CDK4/CCND IC50 (>250 nM column)
[8] = x = IC50 25-250 nM, read-out: CDK2/CCNE IC50 (25-250 nM)
[9] = >250 nM, read-out: CDK1/CCNB IC50 >250 nM
[10] = >250 nM, 1 mM ATP, read-out: CDK6/CCND IC50, >250 nM
[11] = >250 nM, read-out: CDK4/CCND IC50, >250 nM
[12] = 25-250 nM, read-out: CDK2/CCNE IC50, 25-250 nM
[13] = <25 nM, read-out: CDK2/CCNE IC50, <25 nM

Chain of CDK1/CCNB1 (P06493 whole entry): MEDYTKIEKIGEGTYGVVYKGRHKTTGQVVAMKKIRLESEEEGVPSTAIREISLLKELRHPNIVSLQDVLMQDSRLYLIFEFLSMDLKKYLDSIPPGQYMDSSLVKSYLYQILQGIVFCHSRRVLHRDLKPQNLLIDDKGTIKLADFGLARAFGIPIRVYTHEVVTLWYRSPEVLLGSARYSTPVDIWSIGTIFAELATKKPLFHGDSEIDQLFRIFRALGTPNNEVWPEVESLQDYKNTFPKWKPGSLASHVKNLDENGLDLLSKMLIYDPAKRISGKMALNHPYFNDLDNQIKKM
Chain of CDK1/CCNB1 (P14635 whole entry partner): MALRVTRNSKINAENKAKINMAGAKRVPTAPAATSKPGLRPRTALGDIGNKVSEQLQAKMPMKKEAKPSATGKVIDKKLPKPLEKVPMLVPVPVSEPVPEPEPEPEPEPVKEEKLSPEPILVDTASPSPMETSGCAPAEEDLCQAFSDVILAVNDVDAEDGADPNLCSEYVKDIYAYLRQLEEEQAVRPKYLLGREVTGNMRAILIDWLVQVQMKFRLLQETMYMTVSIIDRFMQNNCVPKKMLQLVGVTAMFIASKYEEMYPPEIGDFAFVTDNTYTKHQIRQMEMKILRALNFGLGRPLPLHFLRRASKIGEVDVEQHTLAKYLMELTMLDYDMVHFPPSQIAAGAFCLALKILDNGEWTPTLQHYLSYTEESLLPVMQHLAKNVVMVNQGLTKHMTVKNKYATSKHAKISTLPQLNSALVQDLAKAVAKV

SMILES: Cc1c(-c2nccc3cnc(Nc4ccc(S(=O)(=O)C5CC5)cc4)cc23)ccc2c1cnn2CCO [Ex 662, 2-(5-(7-((4-(cyclopropylsulfonyl)phenyl)amino)-2,6-naphthyridin-1-yl)-4-methyl-1H-indazol-1-yl)ethan-1-ol]
- IC50 (CDK1/CCNB1; [1]): 25 to 250 nM
- IC50 (CDK6/CCND1; [2]): 25 to 250 nM
- IC50 (CDK4/CCND3; [3]): 25 to 250 nM
- IC50 (CDK2/CCNE1; [4]): < 25 nM

SMILES: CS(=O)(=O)c1ccc(Nc2cc3c(C#Cc4cn[nH]c4)nccc3cn2)cc1 [Ex 664, 5-((1H-pyrazol-4-yl)ethynyl)-N-(4-(methylsulfonyl)phenyl)-2,6-naphthyridin-3-amine]
- IC50 (CDK1/CCNB1; [5]): > 250 nM
- IC50 (CDK6/CCND1; [6]): > 250 nM
- IC50 (CDK4/CCND3; [7]): > 250 nM
- IC50 (CDK2/CCNE1; [4]): < 25 nM

SMILES: N#Cc1ccc(C#Cc2nccc3cnc(Nc4ccc(S(=O)(=O)CCO)cc4)cc23)cc1 [Ex 665, 4-((7-((4-((2-hydroxyethyl)sulfonyl)phenyl)amino)-2,6-naphthyridin-1-yl)ethynyl)benzonitrile]
- IC50 (CDK1/CCNB1; [5]): > 250 nM
- IC50 (CDK6/CCND1; [6]): > 250 nM
- IC50 (CDK4/CCND3; [7]): > 250 nM
- IC50 (CDK2/CCNE1; [8]): 25 to 250 nM

SMILES: CS(=O)(=O)c1ccc(Nc2cc3c(C#Cc4ccc(=O)[nH]c4)nccc3cn2)cc1 [Ex 667, 5-((7-((4-(methylsulfonyl)phenyl)amino)-2,6-naphthyridin-1-yl)ethynyl)pyridin-2(1H)-one]
- IC50 (CDK1/CCNB1; [1]): 25 to 250 nM
- IC50 (CDK6/CCND1; [6]): > 250 nM
- IC50 (CDK4/CCND3; [3]): 25 to 250 nM
- IC50 (CDK2/CCNE1; [4]): < 25 nM

SMILES: CS(=O)(=O)c1ccc(Nc2cc3c(C#Cc4ccc(C#N)nc4)nccc3cn2)cc1 [Ex 669, 5-((7-((4-(methylsulfonyl)phenyl)amino)-2,6-naphthyridin-1-yl)ethynyl)picolinonitrile]
- IC50 (CDK1/CCNB1; [5]): > 250 nM
- IC50 (CDK6/CCND1; [6]): > 250 nM
- IC50 (CDK4/CCND3; [7]): > 250 nM
- IC50 (CDK2/CCNE1; [8]): 25 to 250 nM

SMILES: Cc1c(-c2nccc3cnc(Nc4ccc(S(N)(=O)=O)cc4)cc23)ccc2c1cnn2CCO [Ex 673, 4-((5-(1-(2-hydroxyethyl)-4-methyl-1H-indazol-5-yl)-2,6-naphthyridin-3-yl)amino)benzenesulfonamide]
- IC50 (CDK1/CCNB1; [1]): 25 to 250 nM
- IC50 (CDK6/CCND1; x = IC50 <25 nM, read-out: CDK6/CCND IC50 (<25 nM)): < 25 nM
- IC50 (CDK4/CCND3; x = IC50 <25 nM, read-out: CDK4/CCND IC50 (<25 nM)): < 25 nM
- IC50 (CDK2/CCNE1; [4]): < 25 nM

SMILES: Cc1c(-c2nccc3cnc(Nc4ccc(S(C)(=O)=O)cc4)cc23)ccc2c1cnn2CC(N)=O [Ex 676, 2-(4-methyl-5-(7-((4-(methylsulfonyl)phenyl)amino)-2,6-naphthyridin-1-yl)-1H-indazol-1-yl)acetamide]
- IC50 (CDK1/CCNB1; [1]): 25 to 250 nM
- IC50 (CDK6/CCND1; [2]): 25 to 250 nM
- IC50 (CDK4/CCND3; [3]): 25 to 250 nM
- IC50 (CDK2/CCNE1; [4]): < 25 nM

SMILES: Cc1c(-c2nccc3cnc(Nc4ccc(S(=O)(=O)NCC(F)(F)F)cc4)cc23)ccc2c1cnn2CC(O)(C(F)(F)F)C(F)(F)F [Ex 684, 4-((5-(4-methyl-1-(3,3,3-trifluoro-2-hydroxy-2-(trifluoromethyl)propyl)-1H-indazol-5-yl)-2,6-naphthyridin-3-yl)amino)-N-(2,2,2-trifluoroethyl)benzenesulfonamide]
- IC50 (CDK1/CCNB1; [9]): > 250 nM
- IC50 (CDK6/CCND1; [10]): > 250 nM
- IC50 (CDK4/CCND3; [11]): > 250 nM
- IC50 (CDK2/CCNE1; [12]): 25 to 250 nM

SMILES: Cc1ccc(NS(=O)(=O)c2ccc(Nc3cc4c(-c5ccc6c(cnn6CC(O)(C(F)(F)F)C(F)(F)F)c5C)nccc4cn3)cc2)nc1N1CCOCC1 [Ex 694, 4-((5-(4-methyl-1-(3,3,3-trifluoro-2-hydroxy-2-(trifluoromethyl)propyl)-1H-indazol-5-yl)-2,6-naphthyridin-3-yl)amino)-N-(5-methyl-6-morpholinopyridin-2-yl)benzenesulfonamide]
- IC50 (CDK1/CCNB1; [9]): > 250 nM
- IC50 (CDK6/CCND1; [10]): > 250 nM
- IC50 (CDK4/CCND3; [11]): > 250 nM
- IC50 (CDK2/CCNE1; [12]): 25 to 250 nM

SMILES: CCNS(=O)(=O)c1ccc(Nc2cc3c(-c4ccc5c(cnn5CC(O)(C(F)(F)F)C(F)(F)F)c4C)nccc3cn2)cc1 [Ex 695, N-ethyl-4-((5-(4-methyl-1-(3,3,3-trifluoro-2-hydroxy-2-(trifluoromethyl)propyl)-1H-indazol-5-yl)-2,6-naphthyridin-3-yl)amino)benzenesulfonamide]
- IC50 (CDK1/CCNB1; [9]): > 250 nM
- IC50 (CDK6/CCND1; [10]): > 250 nM
- IC50 (CDK4/CCND3; [11]): > 250 nM
- IC50 (CDK2/CCNE1; [13]): < 25 nM

SMILES: COc1ccc(NS(=O)(=O)c2ccc(Nc3cc4c(-c5ccc6c(cnn6CC(O)(C(F)(F)F)C(F)(F)F)c5C)nccc4cn3)cc2)nc1N1CCOCC1 [Ex 697, N-(5-methoxy-6-morpholinopyridin-2-yl)-4-((5-(4-methyl-1-(3,3,3-trifluoro-2-hydroxy-2-(trifluoromethyl)propyl)-1H-indazol-5-yl)-2,6-naphthyridin-3-yl)amino)benzenesulfonamide]
- IC50 (CDK1/CCNB1; [9]): > 250 nM
- IC50 (CDK6/CCND1; [10]): > 250 nM
- IC50 (CDK4/CCND3; [11]): > 250 nM
- IC50 (CDK2/CCNE1; [12]): 25 to 250 nM

SMILES: Cc1cnc(NS(=O)(=O)c2ccc(Nc3cc4c(-c5ccc6c(cnn6CC(O)(C(F)(F)F)C(F)(F)F)c5C)nccc4cn3)cc2)cc1N1CCOCC1 [Ex 701, 4-((5-(4-methyl-1-(3,3,3-trifluoro-2-hydroxy-2-(trifluoromethyl)propyl)-1H-indazol-5-yl)-2,6-naphthyridin-3-yl)amino)-N-(5-methyl-4-morpholinopyridin-2-yl)benzenesulfonamide]
- IC50 (CDK1/CCNB1; [9]): > 250 nM
- IC50 (CDK6/CCND1; [10]): > 250 nM
- IC50 (CDK4/CCND3; [11]): > 250 nM
- IC50 (CDK2/CCNE1; [13]): < 25 nM

SMILES: COc1cnc(NS(=O)(=O)c2ccc(Nc3cc4c(-c5ccc6c(cnn6CC(O)(C(F)(F)F)C(F)(F)F)c5C)nccc4cn3)cc2)nc1N1CCOCC1 [Ex 702, N-(5-methoxy-4-morpholinopyrimidin-2-yl)-4-((5-(4-methyl-1-(3,3,3-trifluoro-2-hydroxy-2-(trifluoromethyl)propyl)-1H-indazol-5-yl)-2,6-naphthyridin-3-yl)amino)benzenesulfonamide]
- IC50 (CDK1/CCNB1; [9]): > 250 nM
- IC50 (CDK6/CCND1; [10]): > 250 nM
- IC50 (CDK4/CCND3; [11]): > 250 nM
- IC50 (CDK2/CCNE1; [13]): < 25 nM

SMILES: COc1cc(NS(=O)(=O)c2ccc(Nc3cc4c(-c5ccc6c(cnn6CC(O)(C(F)(F)F)C(F)(F)F)c5C)nccc4cn3)cc2)nc(N2CCOCC2)c1 [Ex 703, N-(4-methoxy-6-morpholinopyridin-2-yl)-4-((5-(4-methyl-1-(3,3,3-trifluoro-2-hydroxy-2-(trifluoromethyl)propyl)-1H-indazol-5-yl)-2,6-naphthyridin-3-yl)amino)benzenesulfonamide]
- IC50 (CDK1/CCNB1; [9]): > 250 nM
- IC50 (CDK6/CCND1; [10]): > 250 nM
- IC50 (CDK4/CCND3; [11]): > 250 nM
- IC50 (CDK2/CCNE1; [12]): 25 to 250 nM

SMILES: COc1cc(N2CCOCC2)cc(NS(=O)(=O)c2ccc(Nc3cc4c(-c5ccc6c(cnn6CC(O)(C(F)(F)F)C(F)(F)F)c5C)nccc4cn3)cc2)n1 [Ex 704, N-(6-methoxy-4-morpholinopyridin-2-yl)-4-((5-(4-methyl-1-(3,3,3-trifluoro-2-hydroxy-2-(trifluoromethyl)propyl)-1H-indazol-5-yl)-2,6-naphthyridin-3-yl)amino)benzenesulfonamide]
- IC50 (CDK1/CCNB1; [9]): > 250 nM
- IC50 (CDK6/CCND1; [10]): > 250 nM
- IC50 (CDK4/CCND3; [11]): > 250 nM
- IC50 (CDK2/CCNE1; [12]): 25 to 250 nM

SMILES: Cc1cnc(NS(=O)(=O)c2ccc(Nc3cc4c(-c5ccc6c(cnn6CC(O)(C(F)(F)F)C(F)(F)F)c5C)nccc4cn3)cc2)nc1N1CCOCC1 [Ex 706, 4-((5-(4-methyl-1-(3,3,3-trifluoro-2-hydroxy-2-(trifluoromethyl)propyl)-1H-indazol-5-yl)-2,6-naphthyridin-3-yl)amino)-N-(5-methyl-4-morpholinopyrimidin-2-yl)benzenesulfonamide]
- IC50 (CDK1/CCNB1; [9]): > 250 nM
- IC50 (CDK6/CCND1; [10]): > 250 nM
- IC50 (CDK4/CCND3; [11]): > 250 nM
- IC50 (CDK2/CCNE1; [13]): < 25 nM

SMILES: COc1cc(N2CCOCC2)nc(NS(=O)(=O)c2ccc(Nc3cc4c(-c5ccc6c(cnn6CC(O)(C(F)(F)F)C(F)(F)F)c5C)nccc4cn3)cc2)n1 [Ex 707, N-(4-methoxy-6-morpholinopyrimidin-2-yl)-4-((5-(4-methyl-1-(3,3,3-trifluoro-2-hydroxy-2-(trifluoromethyl)propyl)-1H-indazol-5-yl)-2,6-naphthyridin-3-yl)amino)benzenesulfonamide]
- IC50 (CDK1/CCNB1; [9]): > 250 nM
- IC50 (CDK6/CCND1; [10]): > 250 nM
- IC50 (CDK4/CCND3; [11]): > 250 nM
- IC50 (CDK2/CCNE1; [13]): < 25 nM
